Measurements as given in patent publication EP3597653A1, “CYCLIC INHIBITORS OF HEPATITIS B VIRUS” (IRBM S.P.A., priority 2018, dated 2020).

These molecules were tested on HBV (assay: HBV inhibition assay in HepAD38 cells (extracellular HBV DNA by direct qPCR)). Details: Hepatitis B virus, 8-point dose-response curve, 96 hours, read-out: HBV inh EC50.
Assay type: cell-based
Excerpt: HepAD38 cell line (Ladner et al., Antimicrob Agents Chemother, 1997, 41, 1715-20) was used for HBV inhibition assays. HepAD38 is a subclone, derived from Hepatoblastoma cell line HepG2 (ATCC® Number: HB-8065™), that expresses HBV genome under the control of a tetracycline-responsive promoter in a TET-OFF system: addition of tetracycline suppresses HBV replication, while its removal switches on the process allowing HBV viral particles release in the cell supernatant. HepAD38 cell line is maintained in DMEM/F12, supplemented with 10% of fetal bovine serum, 1% of glutamine, 1% of penicillin/streptomycin, 0.4 mg/ml G418 and 0,3 ug/ml tetracycline. For the HBV inhibition assay, doxycycline-free medium is used in order to allow virion production.
HBV inhibition activity in vitro was performed in 96 multiwell plates. During the initial (primary) screening compounds were first tested in triplicates at concentrations of 0.1µM, 0.5µM amd 1µM. For selected compounds, an 8-point dose-response curve can be obtained using 1:2 serial dilutions (starting from 2.5 µM, 1.25µM or 0.4 µM, depending on the degree of inhibition observed during the primary screening). From the dose-response curves, half maximal effective concentration (EC50) can be calculated (see also below).
In more detail, compounds - typically dissolved in DMSO stock solutions - are diluted to 2x the final desired concentration in 100 µl of the above medium (without doxycycline) and plated in three replicates in the 96-well plates.
Simultaneously, HepAD38 cells - extensively pre-washed in tetracycline-free medium in order to induce HBV production - are suspended at 2*10^4 cells in 100 µl of tetracycline-free medium and added to each well of the plate, to yield a final assay volume of 200 µl DMSO - used for stock solutions and compounds dilutions - which is always present in the assays at a final concentration of 0.5%.
Plates are then incubated 96 hours at 37°C and then subjected to cell viability assay in order to define compounds cytotoxicity and to extracellular HBV quantification in order to evaluate antiviral activity of compounds. Cytotoxicity is assessed by a commercial fluorescence assay that measures the metabolic activity of cells, directly related to cell viability (Cell Titer Blue, Promega). Anti-HBV activity was evaluated by quantification of extracellular HBV DNA with direct qPCR. In particular, supernatant was collected and centrifuged for cell debris clarification, viral DNA was extracted from virions by addition of lysis buffer (1 mM 1,4-dithiothreitol, 0.2% sodium dodecyl sulphate) and incubated at 95°C for 10 min. Samples were then diluted 1:40 and real time PCR amplification was performed with SYBR green assay (Power SYBR™ Green PCR Master Mix-Thermo Fisher Scientific) and specific HBV primer (HBV-DF:5'-[…]-3' (SEQ ID No. 1), HBV-DR:5'-[…]-3' (SEQ ID No. 2)).
All HBV inhibition or antiviral activity data are typically reported in percent (%) relative to a non-treated reference sample. Excel and Graphpad Prism programs are typically used for data elaboration and EC50 calculation.

Going from `O=C(Nc1cc(F)c(F)c(F)c1)c1ccc2c(c1)S(=O)(=O)N[C@]1(N2)C(=O)Nc2ccccc21` (single isomer, unassigned) [Example E129] to `O=C(Nc1cc(F)c(F)c(F)c1)c1ccc2c(c1)S(=O)(=O)N[C@@]1(N2)C(=O)Nc2ccccc21` (single isomer, unassigned) [Example E130], the EC50 falls from over 1 µM to under 1 µM.

`O=C(Nc1cc(F)c(F)c(F)c1)c1cc2c(cc1Cl)NCNS2(=O)=O` [Example E7, 6-chloro-N-(3,4,5-trifluorophenyl)-3,4-dihydro-2H-benzo[e][1,2,4]thiadiazine-7-carboxamide 1,1-dioxide] and `CC1Nc2cc(Cl)c(C(=O)Nc3cc(F)c(F)c(F)c3)cc2S(=O)(=O)N1` (centres unmarked) [Example E10, 6-chloro-3-methyl-N-(3,4,5-trifluorophenyl)-3,4-dihydro-2H-benzo[e][1,2,4]thiadiazine-7-carboxamide 1,1-dioxide] cannot be ordered by EC50: under 1 µM for the first, under 1 µM for the second.

`CC1Nc2ccc(C(=O)Nc3cc(F)c(F)c(F)c3)cc2S(=O)(=O)N1` (centres unmarked) [Example E21, 3-methyl-N-(3,4,5-trifluorophenyl)-3,4-dihydro-2H-benzo[e][1,2,4]thiadiazine-7-carboxamide 1,1-dioxide] showed an EC50 of under 1 µM.

Same assay, conditions: Hepatitis B virus, compound at 0.5 µM, 96 hours, relative to non-treated reference, read-out: Anti HBV Activity (conc µM)

`O=C(Nc1cc(F)c(F)c(F)c1)c1ccc2c(c1)S(=O)(=O)NC1(N2)C(=O)Nc2ccccc21` (racemic) [Example E56, 2'-oxo-N-(3,4,5-trifluorophenyl)-2H,4H-spiro[benzo[e][1,2,4]thiadiazine-3,3'-indoline]-7-carboxamide 1,1-dioxide] and `O=C(Nc1cc(F)c(F)c(F)c1)c1ccc2c(c1)S(=O)(=O)NC1(CCNCC1)N2` [Example E14, N-(3,4,5-trifluorophenyl)-2H,4H-spiro[benzo[e][1,2,4]thiadiazine-3,4'-piperidine]-7-carboxamide 1,1-dioxide] cannot be ordered by inhibition at 0.5 µM: over 50% for the first, over 50% for the second.

Going from `[2H]C1([2H])Nc2ccc(C(=O)Nc3cc(F)c(F)c(F)c3)cc2S(=O)(=O)N1` [Example E2, N-(3,4,5-trifluorophenyl)-3,4-dihydro-2H-benzo[e][1,2,4]thiadiazine-3,3-d2-7-carboxamide 1,1-dioxide] to `O=C(Nc1cc(F)c(F)c(F)c1)c1ccc2c(c1)S(=O)(=O)N(O)CN2` [Example E5, 2-hydroxy-N-(3,4,5-trifluorophenyl)-3,4-dihydro-2H-benzo[e][1,2,4]thiadiazine-7-carboxamide 1,1-dioxide], the inhibition at 0.5 µM falls from over 50% to under 50%.

Compared with `O=C(Nc1cc(F)c(F)c(F)c1)c1ccc2c(c1)S(=O)(=O)NCN2O` [Example E4, 4-hydroxy-N-(3,4,5-trifluorophenyl)-3,4-dihydro-2H-benzo[e][1,2,4]thiadiazine-7-carboxamide 1,1-dioxide], `C[C@H](O)C1Nc2ccc(C(=O)Nc3cc(F)c(F)c(F)c3)cc2S(=O)(=O)N1` (stereo partly drawn) [Example E23, 3-((S)-1-hydroxyethyl)-N-(3,4,5-trifluorophenyl)-3,4-dihydro-2H-benzo[e][1,2,4]thiadiazine-7-carboxamide 1,1-dioxide] is higher in inhibition at 0.5 µM: under 50% for the first, over 50% for the second.

`Cc1cc2c(cc1C(=O)Nc1cc(F)c(F)c(F)c1)S(=O)(=O)NCN2` [Example E9, 6-methyl-N-(3,4,5-trifluorophenyl)-3,4-dihydro-2H-benzo[e][1,2,4]thiadiazine-7-carboxamide 1,1-dioxide] and `O=C(Nc1cc(F)c(F)c(F)c1)c1ccc2c(c1)S(=O)(=O)NC(CCO)N2` (centres unmarked) [Example E22, 3-(2-hydroxyethyl)-N-(3,4,5-trifluorophenyl)-3,4-dihydro-2H-benzo[e][1,2,4]thiadiazine-7-carboxamide 1,1-dioxide] cannot be ordered by inhibition at 0.5 µM: over 50% for the first, over 50% for the second.

With `CN1C(C(F)(F)F)Nc2ccc(C(=O)Nc3cc(F)c(F)c(F)c3)cc2S1(=O)=O` (centres unmarked) [Example E18, 2-methyl-3-(trifluoromethyl)-N-(3,4,5-trifluorophenyl)-3,4-dihydro-2H-benzo[e][1,2,4]thiadiazine-7-carboxamide1,1-dioxide] the inhibition at 0.5 µM was under 50%.

Same assay, conditions: Hepatitis B virus, compound at 1 µM, 96 hours, relative to non-treated reference, read-out: Anti HBV Activity (conc µM)

`O=C(Nc1cc(F)c(F)c(F)c1)c1ccc2c(c1)S(=O)(=O)NCN2` [Example E1, N-(3,4,5-trifluorophenyl)-3,4-dihydro-2H-benzo[e][1,2,4]thiadiazine-7-carboxamide 1,1-dioxide] and `O=C(Nc1ccc(F)c(F)c1)c1ccc2c(c1)S(=O)(=O)NCN2` [Example E19, N-(3,4-difluorophenyl)-3,4-dihydro-2H-benzo[e][1,2,4]thiadiazine-7-carboxamide 1,1-dioxide] cannot be ordered by inhibition at 1 µM: over 50% for the first, over 50% for the second.

`CN1CNS(=O)(=O)c2cc(C(=O)Nc3cc(F)c(F)c(F)c3)ccc21` [Example E3, 4-methyl-N-(3,4,5-trifluorophenyl)-3,4-dihydro-2H-benzo[e][1,2,4]thiadiazine-7-carboxamide 1,1-dioxide] and `CN1CNc2ccc(C(=O)Nc3cc(F)c(F)c(F)c3)cc2S1(=O)=O` [Example E6, 2-methyl-N-(3,4,5-trifluorophenyl)-3,4-dihydro-2H-benzo[e][1,2,4]thiadiazine-7-carboxamide 1,1-dioxide] cannot be ordered by inhibition at 1 µM: under 50% for the first, under 50% for the second.

`O=C(Nc1cc(F)c(F)c(F)c1)c1cc2c(cc1Br)NCNS2(=O)=O` [Example E8, 6-bromo-N-(3,4,5-trifluorophenyl)-3,4-dihydro-2H-benzo[e][1,2,4]thiadiazine-7-carboxamide 1,1-dioxide] and `O=C(Nc1cc(F)c(F)c(F)c1)c1ccc2c(c1)S(=O)(=O)NC(C(F)F)N2` (centres unmarked) [Example E17, 3-(difluoromethyl)-N-(3,4,5-trifluorophenyl)-3,4-dihydro-2H-benzo[e][1,2,4]thiadiazine-7-carboxamide1,1-dioxide] cannot be ordered by inhibition at 1 µM: over 50% for the first, over 50% for the second.

First: O=C(Nc1ccc(F)c(F)c1)c1ccc2c(c1)S(=O)(=O)NC1(COC1)N2 [Example E11, N-(3,4-difluorophenyl)-2H,4H-spiro[benzo[e][1,2,4]thiadiazine-3,3'-oxetane]-7-carboxamide 1,1-dioxide]
Second: O=C(Nc1ccc(F)c(F)c1)c1ccc2c(c1)S(=O)(=O)NC1(CCC1)N2 [Example E12, N-(3,4-difluorophenyl)-2H,4H-spiro[benzo[e] [1,2,4]thiadiazine-3,1'-cyclobutane]-7-carboxamide 1,1-dioxide]
The inhibition at 1 µM of the first is lower: under 50% for the first, over 50% for the second.

Compared with `O=C(Nc1cc(F)c(F)c(F)c1)c1ccc2c(c1)S(=O)(=O)NC1(CCOCC1)N2` [Example E13, N-(3,4,5-trifluorophenyl)-2',3',5',6'-tetrahydro-2H,4H-spiro[benzo[e] [1,2,4]thiadiazine-3,4'-pyran]-7-carboxamide1,1-dioxide], `O=C(Nc1cc(F)c(F)c(F)c1)c1ccc2c(c1)S(=O)(=O)NC(C(F)(F)F)N2` (centres unmarked) [Example E15, 3-(trifluoromethyl)-N-(3,4,5-trifluorophenyl)-3,4-dihydro-2H-benzo[e][1,2,4]thiadiazine-7-carboxamide1,1-dioxide] is lower in inhibition at 1 µM: over 50% for the first, under 50% for the second.

`CC(C)OCCC1Nc2ccc(C(=O)Nc3cc(F)c(F)c(F)c3)cc2S(=O)(=O)N1` (centres unmarked) [Example E16, 3-(2-isopropoxyethyl)-N-(3,4,5-trifluorophenyl)-3,4-dihydro-2H-benzo[e][1,2,4]thiadiazine-7-carboxamide 1,1-dioxide] and `CC1Nc2ccc(C(=O)Nc3ccc(F)c(F)c3)cc2S(=O)(=O)N1` (centres unmarked) [Example E20, N-(3,4-difluorophenyl)-3-methyl-3,4-dihydro-2H-benzo[e][1,2,4]thiadiazine-7-carboxamide 1,1-dioxide] cannot be ordered by inhibition at 1 µM: over 50% for the first, over 50% for the second.
